In patent US10954215B2, “Compounds as modulators of ROR gamma” (Boehringer Ingelheim International GmbH, priority 2016, dated 2021):

Target: T1, RORγ (Homo sapiens, UniProt P51449)
T1 construct: expressed in transfected cells; host or cells: HEK 293 cells, transiently transfected
T1 sequence (P51449 269-508 limits assumed): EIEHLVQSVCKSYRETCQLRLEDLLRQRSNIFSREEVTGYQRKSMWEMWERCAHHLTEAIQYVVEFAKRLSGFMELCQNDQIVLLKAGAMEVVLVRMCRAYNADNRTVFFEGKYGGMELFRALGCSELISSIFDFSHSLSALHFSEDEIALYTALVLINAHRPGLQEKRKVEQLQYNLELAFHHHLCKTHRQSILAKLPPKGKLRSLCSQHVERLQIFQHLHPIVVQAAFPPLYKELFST
Experiment: Reporter Gene Assay (RGA): inhibition of RORγ transactivation of a luciferase reporter in transiently transfected HEK 293 cells
Assay type: cell-based
Details: HEK 293 cells cotransfected with pGL4.3 luc2P/GAL4UAS and pBIND Gal4DBD hRORC LBD; 20-24 h incubation; luciferase luminescence
Description: Reporter Gene Assay (RGA)
A nuclear receptor transactivation assay is performed to quantitate the ability of test compounds to inhibit RORγ transactivation of a luciferase reporter. A similar assay is described in: Khan et al., Bioorganic & Medicinal Chemistry Letters 23 (2013), 532-536. The system uses transiently transfected HEK 293 cells cotransfected with two plasmids (pGL4.3, luc2P/GAL4UAS/Hygro, and pBIND, Gal4DBD hRORC LBD1-3). The positive control is co-transiently transfected with both plasmids, and the negative control contains the pGL4.3 promoter sequence. Assays are assembled in 384 well plates where transiently transfected cells and test compound at varying concentrations are incubated for 20-24 h. The next day, assays plates are taken out and equilibrated at RT for 20-30 minutes. Bright-Glo™ Luciferase Assay System is used to detect Luciferase production. After addition of Bright GLO detection reagent, the plates are incubated at RT for 20 minutes. The plates are read on an Envision plate reader to measure luminescence signal. The RLU signal is converted to POC relative to control and blank wells.
Compound dilution buffer:
Bright Glo Luciferase Assay System: Promega #E2620
Thaw lysis buffer provided in kit, add 100 mL lysis buffer to substrate powder.

Structure (SMILES): CCS(=O)(=O)c1ccc(CNC(=O)N2CC(c3ccccc3)C(c3ccccc3)C2)cc1 (stereo not drawn) [Example 1]
- IC50: 2400 nM

Structure (SMILES): CCS(=O)(=O)c1ccc(CNC(=O)N2CC(c3ccccc3)C(c3ccccc3)C2)nc1 (stereo not drawn) [Example 2]
- IC50: 5000 nM

Structure (SMILES): CCS(=O)(=O)c1ccc(CNC(=O)N2CC(c3ccccc3)C(c3ccccc3)C2)cn1 (stereo not drawn) [Example 3]
- IC50: 7900 nM

Structure (SMILES): CCS(=O)(=O)c1ccc(CNC(=O)N2CC(c3ccccc3)C(c3cc(C)nn3C)C2)cc1 (stereo not drawn) [Example 4]
- IC50: 3900 nM

Structure (SMILES): CCS(=O)(=O)c1ccc(CNC(=O)N2CC(c3ccccc3)C(c3ncccc3C3CC3)C2)cc1 (stereo not drawn) [Example 5]
- IC50: 2800 nM

Structure (SMILES): CCS(=O)(=O)c1ccc(CNC(=O)N2CC(c3ccccc3)C(c3cc(C4CC4)nn3C)C2)cc1 (stereo not drawn) [Example 6]
- IC50: 2600 nM

Structure (SMILES): CCS(=O)(=O)c1ccc(CNC(=O)N2CC(c3ccccc3)C(c3csc4ccccc34)C2)cc1 (stereo not drawn) [Example 7]
- IC50: 1020 nM

Structure (SMILES): CCn1nc(C2CC2)cc1C1CN(C(=O)NCc2ccc(S(=O)(=O)CC)cc2)CC1c1ccccc1 (stereo not drawn) [Example 8]
- IC50: 1750 nM

Structure (SMILES): CCS(=O)(=O)c1ccc(CNC(=O)N2CC(c3ccccc3)C(c3cn(C)nc3C(C)(C)C)C2)cc1 (stereo not drawn) [Example 9]
- IC50: 1550 nM

Structure (SMILES): CCS(=O)(=O)c1ccc(CNC(=O)N2CC(C(C)C)C3(C2)Oc2c(C(C)C)ccc(C)c2C3=O)cc1 (stereo not drawn) [Example 10]
- IC50: 275 nM

Structure (SMILES): CCS(=O)(=O)c1ccc(CNC(=O)N2CC(C(C)C)C3(C2)Oc2c(C(C)C)ccc(C)c2C3=O)nc1 (stereo not drawn) [Example 11]
- IC50: 620 nM

Structure (SMILES): CCS(=O)(=O)c1ccc(CNC(=O)N2CC(c3ccccc3)C(c3ccnn3-c3ccccc3)C2)cc1 (stereo not drawn) [Example 12]
- IC50: 2100 nM

Structure (SMILES): CCS(=O)(=O)c1ccc(CNC(=O)N2CC(c3cccc(Cl)c3)C(c3nc(C(C)C)no3)C2)cc1 (stereo not drawn) [Example 13]
- IC50: 19000 nM

Structure (SMILES): CCS(=O)(=O)c1ccc(CNC(=O)N2CC(c3ccccc3)C(c3ncccc3C(F)(F)F)C2)cc1 (stereo not drawn) [Example 14]
- IC50: 1000 nM

Structure (SMILES): CCS(=O)(=O)c1ccc(CNC(=O)N2CC(c3ccccc3)C(c3cc(C)nn3C3CCCC3)C2)cc1 (stereo not drawn) [Example 15]
- IC50: 565 nM

Structure (SMILES): CCS(=O)(=O)c1ccc(CNC(=O)N2CC(c3ccccc3)C(c3cc(C4CC4)nn3C(C)C)C2)cc1 (stereo not drawn) [Example 16A]
- IC50: 625 nM

Structure (SMILES): CCS(=O)(=O)c1ccc(CNC(=O)N2C[C@H](c3ccccc3)[C@@H](c3cc(C4CC4)nn3C(C)C)C2)cc1 [Example 16B]
- IC50: 925 nM

Structure (SMILES): CCS(=O)(=O)c1ccc(CNC(=O)N2C[C@@H](c3ccccc3)[C@H](c3cc(C4CC4)nn3C(C)C)C2)cc1 [Example 16C]
- IC50: 1250 nM

Structure (SMILES): CNS(=O)(=O)c1ccc(CNC(=O)N2CC(c3ccccc3)C(c3cc(C4CC4)nn3C(C)C)C2)cc1 (stereo not drawn) [Example 17]
- IC50: 2300 nM

Structure (SMILES): CCS(=O)(=O)c1ccc(CNC(=O)N2CC(c3ccccc3)C(c3cc(C4CC4)nn3C(C)C)C2)nc1 (stereo not drawn) [Example 18]
- IC50: 2500 nM

Structure (SMILES): CCS(=O)(=O)c1ccc(CNC(=O)N2CC(c3ccccc3)C(c3nn(C(C)C)nc3C3CC3)C2)cc1 (stereo not drawn) [Example 19]
- IC50: 4100 nM

Structure (SMILES): CCS(=O)(=O)c1ccc(CNC(=O)N2CC(c3ccccc3)C(c3cc(C4CC4)nn3C(C)C)C2)cn1 (stereo not drawn) [Example 20]
- IC50: 5500 nM

Structure (SMILES): CCS(=O)(=O)c1ccc(CNC(=O)N2CC(c3ccccc3)C(c3nc(C(C)C)nn3C3CC3)C2)cc1 (stereo not drawn) [Example 21]
- IC50: 7400 nM

Structure (SMILES): CCS(=O)(=O)c1ccc(CNC(=O)N2CC(c3ccccc3)C(c3nc(C4CC4)nn3C(C)C)C2)cc1 (stereo not drawn) [Example 22]
- IC50: 8700 nM

Structure (SMILES): CCS(=O)(=O)c1ccc(CNC(=O)N2CC(c3ccccc3)C(c3nn(C(C)C)nc3C3CC3)C2)nc1 (stereo not drawn) [Example 23]
- IC50: 6200 nM

Structure (SMILES): CCS(=O)(=O)c1cnc(CNC(=O)N2CC(c3ccccc3)C(c3cc(C4CC4)nn3C(C)C)C2)nc1 (stereo not drawn) [Example 24]
- IC50: 13000 nM

Structure (SMILES): CCS(=O)(=O)c1ccc(CNC(=O)N2CC(c3cccc(Cl)c3)C(c3nc(C4CC4)cs3)C2)cc1 (stereo not drawn) [Example 25]
- IC50: 4900 nM

Structure (SMILES): CCS(=O)(=O)c1ccc(CNC(=O)N2CC(c3ccccc3)C(c3ccccc3OC(F)(F)F)C2)cc1 (stereo not drawn) [Example 26]
- IC50: 850 nM

Structure (SMILES): CCS(=O)(=O)c1ccc(CNC(=O)N2CC(c3ccccc3)C(c3cccc(OC(F)(F)F)c3)C2)cc1 (stereo not drawn) [Example 27]
- IC50: 2400 nM

Structure (SMILES): CCS(=O)(=O)c1ccc(CNC(=O)N2CC(c3ccccc3)C(c3cc(C4CC4)nn3CC3CC3)C2)cc1 (stereo not drawn) [Example 28]
- IC50: 1060 nM

Structure (SMILES): CCS(=O)(=O)c1ccc(CNC(=O)N2CC(c3ccccc3)C(c3ccccc3OC(F)(F)F)C2)nc1 (stereo not drawn) [Example 29]
- IC50: 830 nM

Structure (SMILES): CCS(=O)(=O)c1ccc(CNC(=O)N2CC(c3ccccc3)C(c3cccc(OC(F)(F)F)c3)C2)nc1 (stereo not drawn) [Example 30]
- IC50: 5200 nM

Structure (SMILES): CCS(=O)(=O)c1ccc(CNC(=O)N2CC(c3ccccc3)C(c3cc(C4CC4)nn3CC3CC3)C2)nc1 (stereo not drawn) [Example 31]
- IC50: 2200 nM

Structure (SMILES): CCS(=O)(=O)c1ccc(CNC(=O)N2CC(c3cccc(Cl)c3)C(c3cccc4cnccc34)C2)cc1 (stereo not drawn) [Example 32]
- IC50: 1200 nM

Structure (SMILES): CCS(=O)(=O)c1ccc(CNC(=O)N2CC(c3ccccc3)C(c3cn(C4CC4)nc3C(C)(C)C)C2)cc1 (stereo not drawn) [Example 33]
- IC50: 510 nM

Structure (SMILES): CNS(=O)(=O)c1ccc(CNC(=O)N2CC(c3ccccc3)C(c3cn(C4CC4)nc3C(C)(C)C)C2)cc1 (stereo not drawn) [Example 34]
- IC50: 1300 nM

Structure (SMILES): CCS(=O)(=O)c1ccc(CNC(=O)N2CC(c3ccccc3)C(c3cn(C4CC4)nc3C(C)(C)C)C2)nc1 (stereo not drawn) [Example 35]
- IC50: 1900 nM

Structure (SMILES): CCS(=O)(=O)c1ccc(CNC(=O)N2CC(c3ccccc3)C(c3nc(C4CC4)nn3C(C)(C)C)C2)cc1 (stereo not drawn) [Example 36]
- IC50: 2600 nM

Structure (SMILES): CCS(=O)(=O)c1ccc(CNC(=O)N2CC(c3ccccc3)C(c3cn(C(C)C)nc3C(C)(C)C)C2)cc1 (stereo not drawn) [Example 37]
- IC50: 440 nM

Structure (SMILES): CCS(=O)(=O)c1ccc(CNC(=O)N2CC(c3ccccc3)C(c3cc(C(C)(C)C)nn3C(C)C)C2)cc1 (stereo not drawn) [Example 38]
- IC50: 780 nM

Structure (SMILES): CNS(=O)(=O)c1ccc(CNC(=O)N2CC(c3ccccc3)C(c3cn(C(C)C)nc3C(C)(C)C)C2)cc1 (stereo not drawn) [Example 39]
- IC50: 965 nM

Structure (SMILES): CCS(=O)(=O)c1ccc(CNC(=O)N2CC(c3ccccc3)C(c3cn(C(C)C)nc3C(C)(C)C)C2)nc1 (stereo not drawn) [Example 40]
- IC50: 1300 nM

Structure (SMILES): CCS(=O)(=O)c1ccc(CNC(=O)N2CC(c3ccccc3)C(c3cc(C(C)(C)C)nn3C(C)C)C2)nc1 (stereo not drawn) [Example 41]
- IC50: 1450 nM

Structure (SMILES): CCS(=O)(=O)c1ccc(CNC(=O)N2CC(c3ccccc3)C(c3nc(C(C)C)nn3C(C)(C)C)C2)cc1 (stereo not drawn) [Example 42]
- IC50: 1950 nM

Structure (SMILES): CCS(=O)(=O)c1ccc(CNC(=O)N2CC(c3ccccc3)C3(C2)Oc2c(C(C)C)ccc(C)c2C3=O)cc1 (stereo not drawn) [Example 43]
- IC50: 149 nM

Structure (SMILES): CCS(=O)(=O)c1ccc(CNC(=O)N2CC(c3ccccc3)C(c3cc(C(F)(F)F)cnc3OC)C2)cc1 (stereo not drawn) [Example 44]
- IC50: 1150 nM

Structure (SMILES): CCS(=O)(=O)c1ccc(CNC(=O)N2CC(c3ccccc3)C3(C2)Oc2c(C(C)C)ccc(C)c2C3=O)nc1 (stereo not drawn) [Example 45]
- IC50: 260 nM

Structure (SMILES): CCS(=O)(=O)c1ccc(CNC(=O)N2CC(c3cc(C)cc(C)n3)C(c3cc(C4CC4)nn3C(C)C)C2)nc1 (stereo not drawn) [Example 46]
- IC50: 3200 nM

Structure (SMILES): CCS(=O)(=O)c1ccc(CNC(=O)N2CC(c3cccc(Cl)c3)C(c3ccccc3C(F)(F)F)C2)nc1 (stereo not drawn) [Example 47]
- IC50: 1400 nM

Structure (SMILES): CCS(=O)(=O)c1ccc(CNC(=O)N2CC(c3cccc(Cl)c3)C(c3cc(C4CC4)nn3C(C)C)C2)cc1 (stereo not drawn) [Example 48]
- IC50: 775 nM

Structure (SMILES): CCS(=O)(=O)c1ccc(CNC(=O)N2CC(c3cccc(Cl)c3)C(c3nc(C4CC4)nn3C(C)C)C2)nc1 (stereo not drawn) [Example 49]
- IC50: 1750 nM

Structure (SMILES): CCS(=O)(=O)c1ccc(CNC(=O)N2CC(c3cccc(C4CC4)c3)C(c3cc(C4CC4)nn3C(C)C)C2)nc1 (stereo not drawn) [Example 52]
- IC50: 1480 nM

Structure (SMILES): CCS(=O)(=O)c1ccc(CNC(=O)N2CC(c3cccc(C4CC4)n3)C(c3cc(C4CC4)nn3C(C)C)C2)nc1 (stereo not drawn) [Example 53]
- IC50: 1550 nM

Structure (SMILES): CCS(=O)(=O)c1cnc(CNC(=O)N2CC(c3cccc(C4CC4)n3)C(c3cc(C4CC4)nn3C(C)C)C2)nc1 (stereo not drawn) [Example 54]
- IC50: 5200 nM

Structure (SMILES): CCS(=O)(=O)c1ccc(CNC(=O)N2CC(c3ccccc3)C(c3cc(C(F)(F)F)cn(C(C)C)c3=O)C2)cc1 (stereo not drawn) [Example 55]
- IC50: 1500 nM

Structure (SMILES): CCS(=O)(=O)c1ccc(CNC(=O)N2CC(c3cccc(C4CC4)n3)C(c3cn(C4CC4)nc3C(C)(C)C)C2)cc1 (stereo not drawn) [Example 56]
- IC50: 865 nM

Structure (SMILES): CCS(=O)(=O)c1ccc(CNC(=O)N2CC(c3cccc(C4CC4)n3)C(c3cn(C(C)C)nc3C(C)(C)C)C2)cc1 (stereo not drawn) [Example 57]
- IC50: 1050 nM
